In PMC10046020, “In Silico Screening and Optimization of Cell-Penetrating Peptides Using Deep Learning Methods” (Biomolecules, 2023):
Read-outs that look alike come from different tables or passages of the source. Peptide text beside a SMILES is read from it. * marks the point of attachment. FITC = O=C1OC2(c3ccc(O)cc3Oc3cc(O)ccc32)c2ccc(NC(=S)*)cc21; Ahx = NCCCCCC(=O)O

Key:
[1] = cited from earlier work
Source text: Supplement biomolecules-13-00522-s001.zip/biomolecules-2162660_Supplementary Spreadsheets S1 Test Set.csv, table | column: class || Supplement biomolecules-13-00522-s001.zip/biomolecules-2162660_Supplementary Spreadsheets S2 Train Set.csv, table | column: class

[2] = Spreadsheet S1: 150 CPP and 150 non-CPP peptides collected from CellPPD, MLCPP, CPPsite 2.0, Lifetein and other publications

Experimental for MCF-7 cells: MCF-7 cells are maintained in Roswell Park Memorial Institute 1640 medium supplemented with 10% fetal bovine serum and 1% antibiotics at 37 °C in an atmosphere of 5% CO2 in the air. Cells are cultured in a 35-mm plate at a density of 5 × 10^5 cells in growth medium, incubated overnight, and then treated with 1 µM FITC-conjugated peptide for 1 h at 37 °C in a CO2 incubator.
The cultured cells are harvested, washed twice with phosphate-buffered saline (PBS), treated with trypsin for 5 min, washed with PBS again, and then resuspended in 1 mL of 2% paraformaldehyde in PBS. Cells were then transferred to a fluorescence-activated cell sorting tube and analyzed by flow cytometry using a Novocyte flow cytometer (Agilent, Santa Clara, CA, USA).

| Molecule | class (CPP / Non-CPP), Test Set [1, 2] | also measured |
| --- | --- | --- |
| CSCC[C@H](NC(=O)CCCCCNC(=S)Nc1ccc2c(c1)C(=O)OC21c2ccc(O)cc2Oc2cc(O)ccc21)C(=O)N[C@@H](CC(C)C)C(=O)N[C@@H](CCCCN)C(=O)N[C@@H](Cc1c[nH]cn1)C(=O)N[C@@H](CC(C)C)C(=O)N[C@@H](C)C(=O)N[C@@H](CC(C)C)C(=O)N[C@@H](CC(C)C)C(=O)N[C@@H](CC(C)C)C(=O)N[C@@H](CC(C)C)C(=O)N[C@@H](C)C(=O)N[C@@H](C)C(=O)N[C@@H](Cc1c[nH]c2ccccc12)C(=O)N[C@@H](CCCCN)C(=O)N[C@@H](C)C(=O)N[C@@H](CCCNC(=N)N)C(=O)N[C@@H](C)C(N)=O [Peptide 7] ({FITC-Ahx}-MLKHLALLLLAAWKARA-NH2) | – | Permeability (MCF-7 cells): 59.07% |
| CSCC[C@H](NC(=O)CCCCCNC(=S)Nc1ccc2c(c1)C(=O)OC21c2ccc(O)cc2Oc2cc(O)ccc21)C(=O)N[C@@H](CC(C)C)C(=O)N1CCC[C@H]1C(=O)NCC(=O)N[C@@H](CC(C)C)C(=O)N[C@@H](C)C(=O)N[C@@H](CC(C)C)C(=O)N[C@@H](CC(C)C)C(=O)N[C@@H](CCCCN)C(=O)N[C@@H](CC(C)C)C(=O)N[C@@H](C)C(=O)N[C@@H](C)C(=O)N[C@@H](Cc1c[nH]c2ccccc12)C(=O)N[C@H](C(=O)N[C@@H](C)C(=O)N[C@@H](CCCNC(=N)N)C(=O)N[C@@H](C)C(N)=O)[C@@H](C)O [Peptide 2] ({FITC-Ahx}-MLPGLALLKLAAWTARA-NH2) | – | cell permeability compared to the WT peptide (MCF-7 cells): lower cell permeability than the WT CPP |
| CSCC[C@H](NC(=O)CCCCCNC(=S)Nc1ccc2c(c1)C(=O)OC21c2ccc(O)cc2Oc2cc(O)ccc21)C(=O)N[C@@H](CCCCN)C(=O)N1CCC[C@H]1C(=O)NCC(=O)N[C@@H](CC(C)C)C(=O)N[C@@H](C)C(=O)N[C@@H](CC(C)C)C(=O)N[C@@H](CC(C)C)C(=O)N[C@@H](CC(C)C)C(=O)N[C@@H](CC(C)C)C(=O)N[C@@H](C)C(=O)N[C@@H](C)C(=O)N[C@@H](CCCCN)C(=O)N[C@@H](CCCCN)C(=O)N[C@@H](C)C(=O)N[C@@H](CCCNC(=N)N)C(=O)N[C@@H](C)C(N)=O [Peptide 10] ({FITC-Ahx}-MKPGLALLLLAAKKARA-NH2) | – | cell permeability compared to the WT peptide (MCF-7 cells): lower cell permeability than the WT CPP |
| CSCC[C@H](NC(=O)CCCCCNC(=S)Nc1ccc2c(c1)C(=O)OC21c2ccc(O)cc2Oc2cc(O)ccc21)C(=O)N[C@@H](CC(C)C)C(=O)N1CCC[C@H]1C(=O)NCC(=O)N[C@@H](CC(C)C)C(=O)N[C@@H](C)C(=O)N[C@@H](CC(C)C)C(=O)N[C@@H](CC(C)C)C(=O)N[C@@H](CC(C)C)C(=O)N[C@@H](CC(C)C)C(=O)N[C@@H](C)C(=O)N[C@@H](C)C(=O)N[C@@H](Cc1c[nH]c2ccccc12)C(=O)N[C@H](C(=O)N[C@@H](C)C(=O)N[C@@H](CCCNC(=N)N)C(=O)N[C@@H](C)C(N)=O)[C@@H](C)O [Peptide 1] ({FITC-Ahx}-MLPGLALLLLAAWTARA-NH2) | – | Permeability (MCF-7 cells): 10.40% |
| RKKAAA | – | class (CPP / Non-CPP), Test Set [1]: CPP |
| QKVAFCDCCYDDIYTVEFKGCIFRPK | Non-CPP | – |
| FKCRRWQWRMKKLGKRSKNKGFKEQAKSLLKWILD | CPP | – |
| RRRRRRRGGKLAKLAKKLAKLAK | – | class (CPP / Non-CPP), Train Set ([1]; Spreadsheet S2: peptides collected from CellPPD, MLCPP, CPPsite 2.0, Lifetein and other publications): CPP |
| STGKANKITITNDKGRLSK | CPP | – |
| TERQGKIWFQNRRMK | Non-CPP | – |
| WEAVVAYGRKKRRQRRR | CPP | – |
| PPPPPPPPPPPLRR | CPP | – |
| HADGLFTSGYSKLLGQLSARRYLESLI | Non-CPP | – |
